These results are taken from patent US10696615B2, “Prenylated hydroxystilbenes” (The University of Sydney, priority 2011, dated 2020).

Molecules are shown by their SMILES.

Series [1] is described as follows: Acute toxicity study (maximum tolerated dose). Type of series: in vivo. Conditions: for Death days / Survivor/Total day 15: IP, single dose. On the procedure:
A single mouse is given a single IP injection of 400 mg/kg; a second mouse receives a dose of 200 mg/kg IP and a third mouse receives a single dose of 100 mg/kg IP. The mice are observed for a period of 2 weeks. They are sacrificed if they lose more than 20% of their body weight or if there are other signs of significant toxicity. If all 3 mice must be sacrificed, then the next 3 dose levels (50, 25, 12.5 mg/kg) are tested in a similar way. This process is repeated until a tolerated dose is found. This dose is then designated the maximum tolerated dose (MTD) and is used to calculate the amount of material given to experimental mice during anti-tumor testing. The mice are allowed ad libitum feed and water. Drug was dissolved in 100% DMSO at concentration of 200 mg/mL.

In series [2] the target is CDK4/CyclinD3 (Homo sapiens, UniProt P11802). The series can be described thus: Kinase activity assay. It counts as biochemical. Conditions: listed = inhibited more than 60%. Here is the method:
(§1) • Kinase-Glo(Plus)/ADP-Gloassay buffer 25 mMHEPES, 10 mMMgCl2, 0.01% Triton X-100, 100 μg/mLBSA, 2.5 mMDTT, pH7.4. • Caliper assay buffer 100 mMHEPES, 10 mMMgCl2, 100 μl/L Brij35 (30%), 1 mMDTT, pH7.4. Assay Substrates • MBP protein, UnactiveMEK1, Rbprotein were purchased from SignalChem. Poly(glu:tyr)(4:1) was purchased from Sigma. PIP2 was purchased from Cayman. Peptide substrates were synthesized in HD Biosciences, China. ATP was purchased from Sigma. KinaseGloPlus reagent, KinaseGloreagent and ADP Gloreagent were purchased from Promega Assay Procedure—Caliper Format
(§2) Mix Kinases, substrate, ATP and compound in 96-well assay plate, total volume is 50 μL. Incubate assay plate at 30° C. for 1 hour. Stop reaction by adding 20 μL of 35 mM EDTA and transfer 26 μL stopped reaction to 384-well assay plate. Read the assay plate on the plate reader.
(§3) Mix Kinases, substrate, ATP and compound in 384-well assay plate, total volume is 10 μl. Incubate assay plate at 30° C. for 1 hour. Add 10 μl/well of ADP GloReagent to the assay plate, incubate at 27° C. for 40 min.
(§4) Add 20 μl/well Detection Reagent to the assay plate, incubate at 27° C. for 30 min. Read the assay plate on the plate reader
(§5) Mix Kinase, substrate, ATP and compound in 384-well assay plate, total volume is 10 μl. Incubate assay plate at 30° C. for 1 hour. Add 10 μl/well KinaseGlo(Plus) reagent to the reaction mixture, and then incubate at 27° C. for 20 min. Read the assay plate on plate reader. • Hundred percent effect was performed without compound and enzyme, but containing ATP and substrate. • Zero percent effect was carried out without compound, but containing ATP, substrate and enzyme. • SB202190 is reference compounds for kinase p38β; Staurosporine(STSP) is reference compound for the remaining kinases. Results

The nature of series [3]: DPPH scavenging activity assay. Conditions: FIG. 10, result in words. On the procedure: The (1,1-diphenyl-2-picrylhydrazyl) DPPH assay is commonly used to test free radical scavenging ability of a compound or extracts of natural products by measurement of the reduction of DPPH* radicals at 517 nm. […] Upon reduction by an antioxidant or radical scavenger, the absorption disappears and the resulting decolorization by scavenging the radical is stoichiometric with respect to the number of electrons taken up (DPPH*+AH→DPPH:H+A*). The DPPH assay was carried out in a stepwise procedure as described below.
A methanolic solution of DPPH (0.1 mM) was stirred in a dark container at room temperature for 20 min. The solution was scanned between 400-750 nm to obtain a maximum wavelength (λmax, ˜510 nm). The concentration of the DPPH solution was adjusted with methanol to result in a maximum absorbance of approximately 1.0. Test samples at different concentrations and standard antioxidant solution (0.05 mL) were added to 0.95 mL of methanolic DPPH solution in a cuvette. Final concentrations of the test samples were 0.1, 1, 10, 50, 100 and 200 μM. The mixtures were shaken vigorously and allowed to stand in the dark for 30 min at room temperature. Absorbance of the resulting solution was measured at the maximum wavelength (˜510 nm). A decrease in absorbance indicated a free radical scavenging effect of the test samples. […]

In series [4] the target is FLT1 (Homo sapiens, UniProt P17948). The series can be described thus: Kinase activity assay. Type of series: biochemical. The settings on record: listed = inhibited more than 60%. On the procedure: as §1, §2, §3, §4, §5
For series [5], the target named is CDK1/CyclinB (Homo sapiens, UniProt P06493). The series can be described thus: Kinase activity assay. It counts as biochemical. The settings on record: listed = inhibited more than 60%. On the procedure: as §1, §2, §3, §4, §5
Series [6] deals with KDR (Homo sapiens, UniProt P35968). The series can be described thus: Kinase activity assay. Type of series: biochemical. Conditions: listed = inhibited more than 60%. Here is the method:
as §1, §2, §3, §4, §5

FLT1, sequence (P17948 27-1338, species assumed): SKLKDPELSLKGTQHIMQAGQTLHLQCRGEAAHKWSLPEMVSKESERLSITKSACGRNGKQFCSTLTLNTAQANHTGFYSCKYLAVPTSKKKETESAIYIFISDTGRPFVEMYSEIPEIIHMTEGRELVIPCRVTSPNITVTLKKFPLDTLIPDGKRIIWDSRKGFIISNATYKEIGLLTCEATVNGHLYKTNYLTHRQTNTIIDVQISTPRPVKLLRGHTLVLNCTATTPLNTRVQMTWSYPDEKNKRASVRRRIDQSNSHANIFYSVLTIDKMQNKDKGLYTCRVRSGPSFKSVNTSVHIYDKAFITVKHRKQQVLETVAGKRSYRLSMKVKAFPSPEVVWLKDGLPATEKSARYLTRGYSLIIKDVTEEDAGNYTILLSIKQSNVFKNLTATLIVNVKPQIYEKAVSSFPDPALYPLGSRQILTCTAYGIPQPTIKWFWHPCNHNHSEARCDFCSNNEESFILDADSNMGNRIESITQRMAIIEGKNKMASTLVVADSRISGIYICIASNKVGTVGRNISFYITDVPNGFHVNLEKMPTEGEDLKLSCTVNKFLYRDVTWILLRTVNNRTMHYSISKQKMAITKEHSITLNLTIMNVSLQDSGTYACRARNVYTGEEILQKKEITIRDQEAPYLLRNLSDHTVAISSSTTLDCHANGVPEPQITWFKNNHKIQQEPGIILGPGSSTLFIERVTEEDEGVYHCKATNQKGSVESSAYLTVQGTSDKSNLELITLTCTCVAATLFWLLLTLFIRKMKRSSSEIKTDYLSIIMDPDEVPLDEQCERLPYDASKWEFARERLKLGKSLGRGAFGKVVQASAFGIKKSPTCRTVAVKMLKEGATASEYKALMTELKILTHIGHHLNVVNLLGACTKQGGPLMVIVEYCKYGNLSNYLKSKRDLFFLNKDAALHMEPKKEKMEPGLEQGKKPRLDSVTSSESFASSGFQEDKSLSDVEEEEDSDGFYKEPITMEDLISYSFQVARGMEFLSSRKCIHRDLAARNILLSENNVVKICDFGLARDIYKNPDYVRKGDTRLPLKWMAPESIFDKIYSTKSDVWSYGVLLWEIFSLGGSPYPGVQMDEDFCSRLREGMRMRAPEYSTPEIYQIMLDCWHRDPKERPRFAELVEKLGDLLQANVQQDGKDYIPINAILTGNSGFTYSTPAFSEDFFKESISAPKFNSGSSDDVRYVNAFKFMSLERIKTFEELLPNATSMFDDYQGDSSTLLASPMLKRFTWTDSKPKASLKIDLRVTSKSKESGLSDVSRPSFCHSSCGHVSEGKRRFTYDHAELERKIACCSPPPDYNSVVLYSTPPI
KDR, sequence (P35968 20-1356, species assumed): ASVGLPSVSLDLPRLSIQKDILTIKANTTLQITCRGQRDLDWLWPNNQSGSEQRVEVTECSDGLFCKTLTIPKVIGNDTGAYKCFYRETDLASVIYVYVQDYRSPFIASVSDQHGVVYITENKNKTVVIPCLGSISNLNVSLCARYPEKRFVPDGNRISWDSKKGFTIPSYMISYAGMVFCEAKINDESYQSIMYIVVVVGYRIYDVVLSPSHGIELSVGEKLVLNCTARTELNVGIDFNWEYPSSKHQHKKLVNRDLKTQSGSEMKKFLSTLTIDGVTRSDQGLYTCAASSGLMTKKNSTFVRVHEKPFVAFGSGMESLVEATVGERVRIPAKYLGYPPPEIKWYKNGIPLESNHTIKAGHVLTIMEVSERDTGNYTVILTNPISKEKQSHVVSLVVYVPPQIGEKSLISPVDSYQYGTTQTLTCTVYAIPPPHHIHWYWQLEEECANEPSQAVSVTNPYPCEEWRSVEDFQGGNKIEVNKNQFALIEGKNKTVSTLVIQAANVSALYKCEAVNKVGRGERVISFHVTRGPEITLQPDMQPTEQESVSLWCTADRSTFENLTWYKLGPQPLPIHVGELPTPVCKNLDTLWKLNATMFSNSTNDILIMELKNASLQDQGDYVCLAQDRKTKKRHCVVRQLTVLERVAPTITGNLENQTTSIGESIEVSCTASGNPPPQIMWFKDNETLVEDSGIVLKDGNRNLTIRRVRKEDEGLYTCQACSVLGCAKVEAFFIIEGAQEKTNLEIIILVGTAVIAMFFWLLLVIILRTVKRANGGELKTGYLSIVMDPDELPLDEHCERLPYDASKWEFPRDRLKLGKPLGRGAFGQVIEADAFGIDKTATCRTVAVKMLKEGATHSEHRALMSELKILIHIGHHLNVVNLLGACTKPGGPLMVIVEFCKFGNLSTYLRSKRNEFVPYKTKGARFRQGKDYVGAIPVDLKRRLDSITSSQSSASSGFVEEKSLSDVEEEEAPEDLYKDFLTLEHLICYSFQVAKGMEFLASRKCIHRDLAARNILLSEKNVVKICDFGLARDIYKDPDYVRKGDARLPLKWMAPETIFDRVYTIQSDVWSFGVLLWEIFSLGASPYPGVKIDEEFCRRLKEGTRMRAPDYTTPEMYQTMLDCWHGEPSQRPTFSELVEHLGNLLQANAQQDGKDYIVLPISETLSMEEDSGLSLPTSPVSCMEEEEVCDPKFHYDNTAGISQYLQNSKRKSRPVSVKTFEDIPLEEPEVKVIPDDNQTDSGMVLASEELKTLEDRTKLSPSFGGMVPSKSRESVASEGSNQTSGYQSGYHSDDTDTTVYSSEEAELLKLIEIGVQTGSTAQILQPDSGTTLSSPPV
CDK1/CyclinB, sequence (P06493 whole entry, species assumed): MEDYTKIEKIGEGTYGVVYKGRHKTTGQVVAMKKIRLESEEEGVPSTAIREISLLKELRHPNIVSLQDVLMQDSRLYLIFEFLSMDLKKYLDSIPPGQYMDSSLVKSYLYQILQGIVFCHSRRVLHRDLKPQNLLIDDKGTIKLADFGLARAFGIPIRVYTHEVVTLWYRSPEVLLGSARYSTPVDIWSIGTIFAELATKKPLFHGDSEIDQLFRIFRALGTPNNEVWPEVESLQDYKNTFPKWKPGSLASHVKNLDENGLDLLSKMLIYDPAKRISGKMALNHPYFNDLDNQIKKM
CDK1/CyclinB, sequence (P14635 whole entry partner, species assumed): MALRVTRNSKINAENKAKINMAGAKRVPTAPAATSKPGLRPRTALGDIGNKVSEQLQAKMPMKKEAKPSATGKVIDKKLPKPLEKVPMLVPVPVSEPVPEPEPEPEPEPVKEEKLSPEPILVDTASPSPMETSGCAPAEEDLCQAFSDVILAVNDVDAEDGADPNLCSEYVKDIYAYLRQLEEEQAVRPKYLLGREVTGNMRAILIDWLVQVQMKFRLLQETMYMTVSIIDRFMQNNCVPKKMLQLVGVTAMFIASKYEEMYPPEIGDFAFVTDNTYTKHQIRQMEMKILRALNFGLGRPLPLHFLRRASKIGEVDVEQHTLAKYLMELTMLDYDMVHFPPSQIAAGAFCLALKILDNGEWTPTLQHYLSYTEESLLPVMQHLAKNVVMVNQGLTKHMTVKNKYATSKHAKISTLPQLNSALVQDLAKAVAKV
CDK4/CyclinD3, sequence (P11802 whole entry, species assumed): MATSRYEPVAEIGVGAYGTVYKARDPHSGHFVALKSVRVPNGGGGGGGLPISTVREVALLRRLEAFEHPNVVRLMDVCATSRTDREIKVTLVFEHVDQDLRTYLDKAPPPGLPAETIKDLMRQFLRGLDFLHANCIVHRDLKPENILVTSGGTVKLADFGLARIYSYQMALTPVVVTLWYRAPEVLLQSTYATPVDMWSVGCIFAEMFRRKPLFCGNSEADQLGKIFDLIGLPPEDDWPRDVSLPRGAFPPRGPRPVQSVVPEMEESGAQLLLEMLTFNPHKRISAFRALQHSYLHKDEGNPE
CDK4/CyclinD3, sequence (P30281 whole entry partner, species assumed): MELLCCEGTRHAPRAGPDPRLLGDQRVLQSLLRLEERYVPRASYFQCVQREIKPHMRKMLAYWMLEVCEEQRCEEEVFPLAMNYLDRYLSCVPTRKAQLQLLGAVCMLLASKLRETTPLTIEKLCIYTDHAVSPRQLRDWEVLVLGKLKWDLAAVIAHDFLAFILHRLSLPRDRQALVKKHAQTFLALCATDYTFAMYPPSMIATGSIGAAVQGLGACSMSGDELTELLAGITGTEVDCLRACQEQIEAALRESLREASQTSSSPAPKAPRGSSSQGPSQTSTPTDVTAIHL

Turning to `COc1cc(/C=C/c2cc(O)cc(OC)c2CC=C(C)C)ccc1O` [USYDS1, (E)-2-(3-methyl-2-buten-1-yl)-4′,5-dihydroxy-3,3′-dimethoxystilbene], the maximal tolerated dose (MTD) at 2 weeks in series [1] (in vivo, mouse, single IP injection, observed 2 weeks) was found to be 100 mg/kg. Also, the Death days result was “None” in series [1] (mouse, 100 mg/kg/dose); 1 in series [1] (mouse, 200 mg/kg/dose); 1 in series [1] (mouse, 400 mg/kg/dose). In addition, the “Survivor/Total day 15” value is listed as 1/1 in series [1] (mouse, 100 mg/kg/dose); 0/1 in series [1] (mouse, 200 mg/kg/dose); 0/1 in series [1] (mouse, 400 mg/kg/dose). Besides, the mammalian toxicity entry in series [1] (result in words) was “low mammalian toxicity”. For the same molecule, the “Kinases that inhibited more than 60%” value in series [2] was “CDK4/CyclinD3”.

Consider `CC(C)=CCc1c(O)cc(/C=C/c2ccc(O)c(O)c2)c(CC=C(C)C)c1O` [USYDS7, (E)-2,4-di(3-methyl-2-buten-1-yl)-3,3′,4′,5-tetrahydroxystilbene], for which, in series [3], the “effect on free radical scavenging” value was “strong effect”.

For `COc1cc(/C=C/c2cc(O)cc(O)c2CC=C(C)C)ccc1O` [USYDS10, (E)-2-(3-methyl-2-buten-1-yl)-3,4′,5-trihydroxy-3′-methoxystilbene], the “Kinases that inhibited more than 60%” value in series [4] is recorded as “FLT1”; in series [5] it was “CDK1/CyclinB”; in series [6] it was “KDR”.
